# Where “and” joins values, the source holds several entries; their conditions need not be identical. Equal entries are not always repeated. After the bases stand the sugars from the 5' end (letter, count) and the backbone: PS all phosphorothioate, else s phosphorothioate and o phosphodiester by linkage. Methylation of C is not given here. e = 2'-O-(2-methoxyethyl) (MOE); k = constrained ethyl (cEt); d = 2'-deoxy (DNA)
# Target: APOL1
# Details: ASO
Sequence,"target mRNA inhibition (A431, 0.0625 µM)","target mRNA inhibition (A431, 0.25 µM)","target mRNA inhibition (A431, 1 µM)","target mRNA inhibition (A431, 2 µM)","target mRNA inhibition (A431, 0.0156 µM)"
"AGCAGCCACGAATCCG (sugars k4 d9 k3, PS)",40%,66%,63%,,
"AGCTTTAAACTCAGGT (sugars k3 d5 k3 d5, PS)",,,,68%,
"AGCTTTAAACTCAGGT (sugars kekddddeekkddddd, PS)",,,,82%,
"AGCTTTAAACTCAGGT (sugars kkkddddkekeddddd, PS)",,,,85%,
"AGTATTGTTTTTGTGG (sugars kkdddddkekeddddd, PS)",,,,91%,
"AGTATTGTTTTTGTGG (sugars kkddddkekekddddd, PS)",,,,75%,
"AGTATTGTTTTTGTGG (sugars kkkddddkekekdddd, PS)",,,,55%,
"AGTCATTAGTGCTATA (sugars k4 d9 k3, PS)",57%,78%,88%,,
"AGTTTCATATTCACCC (sugars k4 d9 k3, PS)",58%,83%,94%,,
"AGTTTTGTAAGTGCAA (sugars k2 d4 e4 k2 d4, PS)",23%,80%,91%,94%,4%
"AGTTTTGTAAGTGCAA (sugars kkddddkekekkdddd, PS)",,,,84%,
"ATATCAGATGGGTACT (sugars kkkddddkekekdddd, PS)",,,,28%,
"ATCAGATGGGTACTTC (sugars k3 d4 k3 e1 d5, PS)",,,,88%,
"ATCAGATGGGTACTTC (sugars k4 d9 k3, PS)",53%,78%,89%,,
"ATCAGATGGGTACTTC (sugars kkddddkekekddddd, PS)",,,,66%,
"ATGCGGTACTGACTGA (sugars k4 d9 k3, PS)",49%,69%,88%,,
"ATGCTAATTTTCTGAC (sugars k2 d4 e3 k2 d5, PS)",,,,88%,
"ATGCTAATTTTCTGAC (sugars kkddddkekekddddd, PS)",59%,84%,93%,97%,25%
"ATGTCTCAAACTCCAC (sugars k4 d9 k3, PS)",29%,63%,83%,,
"ATTCAGAATTTCCACT (sugars k2 d4 e3 k2 d5, PS)",,,,77%,

Sequence,"target mRNA inhibition (A431, 0.0625 µM)","target mRNA inhibition (A431, 0.25 µM)","target mRNA inhibition (A431, 1 µM)","target mRNA inhibition (A431, 2 µM)","target mRNA inhibition (A431, 0.0156 µM)"
"ATTCAGAATTTCCACT (sugars kkdddddkekeddddd, PS)",,,,88%,
"ATTCAGAATTTCCACT (sugars kkddddekekeddddd, PS)",,,,87%,
"ATTCTATTAGAGGGCT (sugars k2 d4 e3 k2 d5, PS)",,,,70%,
"ATTCTATTAGAGGGCT (sugars kdddddkekekddddd, PS)",,,,45%,
"ATTCTATTAGAGGGCT (sugars kkddddkekekkdddd, PS)",,,,34%,
"ATTCTCATGGTACAGG (sugars k2 d4 e3 k2 d5, PS)",34%,72%,90%,92%,13%
"ATTCTCATGGTACAGG (sugars kdddddkekekddddd, PS)",,,,83%,
"ATTCTCATGGTACAGG (sugars kkddddkdkdkddddd, PS)",,,,84%,
"ATTCTCATGGTACAGG (sugars kkkddddkdkdkdddd, PS)",,,,81%,
"ATTCTGTGTGCTCACT (sugars k4 d9 k3, PS)",65%,80%,92%,,
"ATTGGCTCAGTGACCC (sugars k4 d9 k3, PS)",,72% and 76%,88% and 86%,,
"ATTTCTTGATGTGGTG (sugars kkddddkekekkdddd, PS)",,,,69%,
"CAAGGTTGTCCAGAGC (sugars k4 d9 k3, PS)",31%,58%,64%,,
"CACATCATTGGGTTAT (sugars k2 d4 e3 k2 d5, PS)",,,,86%,
"CACATCATTGGGTTAT (sugars kkddddkdkdkddddd, PS)",,,,79%,
"CACCTGTTCACCGCTT (sugars k4 d9 k3, PS)",41%,67%,87%,,
"CACTTGAGTCATTTGC (sugars k4 d9 k3, PS)",37%,73%,86%,,
"CACTTTACATGCACGA (sugars k4 d9 k3, PS)",26%,65%,85%,,
"CACTTTATACCAGTGT (sugars kkddddekekeddddd, PS)",,,,0%,
"CAGTTCCCATTTTTCC (sugars k4 d9 k3, PS)",62%,83%,94%,,
